Experiments:
[1] = tested on: greenhouse red spider mite (Tetranychus urticae); assay: Tetranychus urticae drench test, OP-resistant, systemic treatment (TETRUR sys.); format: in vivo; details: soil, 336 h, 14 dat
Procedure: Tetranychus urticae—Drench Test, OP-resistant, systemic treatment (TETRUR sys.)
• Solvent: 7 parts by weight of dimethylformamide • Emulsifier: 2 parts by weight of alkylaryl polyglycol ether
(§1) To produce a suitable preparation of active compound, 1 part by weight of active compound is mixed with the stated amounts of solvent and emulsifier, and the concentrate is diluted with water to the desired concentration. If the addition of ammonium salts or/and penetrants is required, these are in each case added in a concentration of 1000 ppm to the solution of the preparation.
Bean plants (Phaseolus vulgaris) which are heavily infested by all stages of the greenhouse red spider mite (Tetranychus urticae) are watered with an active compound preparation of the desired concentration.
(§2) After the desired period of time, the effect in % is determined. 100% means that all of the spider mites have been killed; 0% means that none of the spider mites have been killed.

[2] = tested on: greenhouse red spider mite (Tetranychus urticae); assay: Tetranychus urticae spray test, OP-resistant (TETRUR), bean plants; format: in vivo; details: 168 h, 7 dat
Procedure: Tetranychus urticae—Spray Test, OP-resistant (TETRUR) • Solvent: 7 parts by weight of dimethylformamide • Emulsifier: 2 parts by weight of alkylaryl polyglycol ether
as §1, with “diluted with emulsifier-containing water to” for “diluted with water to”
Bean plants (Phaseolus vulgaris) which are heavily infested by all stages of the greenhouse red spider mite (Tetranychus urticae) are sprayed with an active compound preparation of the desired concentration.
as §2

| Compound | inhibition at 20 ppm [1] [%] | inhibition at 20 ppm [2] [%] |
| --- | --- | --- |
| CC(=O)NCc1cc(NC(=O)c2c(C(F)(F)F)c(C(F)(F)C(F)(F)F)nn2C)ccc1F [Example 13] | 90 | 30 |
| CCNC(=O)c1cc(NC(=O)c2c(C(F)(F)F)c(C(F)(F)C(F)(F)F)nn2C)ccc1Cl [Example Ik-66, reference compound] | 30 | 0 |

From patent US9204645B2, “Insecticidal aromatic amides” (BAYER INTELLECTUAL PROPERTY GMBH, priority 2011, dated 2015)
